Measurements taken from patent US11241436B2, “Autophagy inducers for treatment of CNS conditions” (Northwestern University, priority 2017, dated 2022).

Experiments:
WT mice = test: Analgesic tolerance test during chronic WIN treatment; assay type: in vivo, mouse; conditions: WT mice, co-treatment with daily WIN for 14 d, compared with vehicle
Procedure: Briefly, mice were injected with WIN for 14 d, and analgesic tolerance was measured without WIN treatment on day 0, and after 1-h WIN treatment on day 1 and day 14.
There were no genotype differences either in basal pain sensitivity to infrared heat-generated pain (agonist-free, day 0) (FIG. 2C), or in analgesic effects of acute WIN treatment prior to chronic WIN administration (day 1) (FIG. 2D).

LC3 and p62/SQSTM1 = test: Western blot detection of LC3 and p62/SQSTM1 in mouse tissues; assay type: in vivo; conditions: for LC3-II conversion / levels of p62 (SQSTM1): mouse brain
Procedure: WAT, white adipose tissue; BAT, brown adipose tissue.
Autophagy analyses. For assessment of autophagy in vivo, 8-week old male WT and Becn 1FA/FA mice crossed to GFP-LC3 mice were exercised for 90 minutes, or starved for 48 h, and then anaesthetized by isoflurane and perfused with 4% PFA Brain and muscle samples were fixed in 4% PFA overnight, 15% sucrose for 4 h and 30% sucrose overnight before frozen sections were prepared. The number of GFP-LC3 puncta per unit area of tissue was quantified by fluorescence microscopy. Autophagy in vivo was also analyzed by western blot analysis of brain tissue extracts with antibodies against LC3 and p62/SQSTM1 (see below for details).
Western blot analyses. Cell or mouse muscle and brain extracts were prepared in lysis buffer containing 50 mM Tris (pH 7.4), 150 mM NaCl, 1 mM EDTA, 1% Triton X-100, halt proteinase inhibitor cocktail (ThermoFisher Scientific) and halt phosphatase inhibitor cocktail (ThermoFisher Scientific), and subjected to western blot analysis with anti-LC3 (Novus Biologicals, NB100-2220), anti-SQSTM 1 (Abnova, H00008878-M01), anti-Af342 (Invitrogen; 700254), anti-APP (Biolegend; 803001), HRP-conjugated GFP antibody (Santa Cruz Biotechnology, sc9996), anti-HA (Cell Signaling Technology, C29F4), anti-ATG7 (Sigma Aldrich; A2856), anti-LDLR (Abeam, ab52818), anti-LRP 1 (Abeam, ab92544), and anti-ACTB/f3-actin-HRP (Santa Cruz Biotechnology, sc47778 HRP) antibodies. The band intensity was analyzed using the ImageJ software.

CB1R = test: Brain CB1R (CNR1) level by Western blot after chronic WIN; assay type: in vivo, mouse; conditions: mice concurrently treated with daily WIN for 14 d
Procedure: To investigate whether restoration of CB1R signaling underlies the behavioral regulation by autophagy activation, the level and functionality of CB1R in mouse brain after co-administration of chronic cannabinoids and autophagy inducers were analyzed. […] To determine whether the increased level of CB1R represents CB1R re-sensitization in the brain, the agonist-induced phosphorylation of signaling kinases downstream of CB1R after chronic WIN exposure were analyzed.

[1] = system: Beclin 2-GASP1 interaction; test: Coimmunoprecipitation of endogenous GASP1 with Flag-human Beclin 2 in HEK293 cells; assay type: cell-based; conditions: 3 h
Source text: Based on this model, the effect of these inducers on the Beclin 2-GASP1 interaction in vitro and in mouse brain were subsequently examined.

[2] = system: HTT65Q and HTT103Q aggregates; test: Filter trap assay of polyQ HTT aggregates in HeLa cells; assay type: cell-based
Procedure: Cells were transfected with nontargeting control (NC) or ATG7 siRNA 24 h prior to Rg2 treatment for another 24 h. HTT aggregates were analyzed by lysate filtration through 0.2 μm nitrocellulose membrane. Cells treated with tetracycline served as negative control.
ML246 promotes the removal of intracellular aggregates formed by polyglutamine (polyQ)-expansion proteins. HeLa cell lines stably expressing tetracycline-repressible expanded polyQ-repeat protein HTT (huntingtin) was used as a model, HTT65Q and HTT103Q. In contrast to the HTT protein with the normal number of glutamine repeats (HTT25Q), HTT65Q and HTT103Q formed insoluble polyQ aggregates larger than 0.2-μm diameter, which can be detected by filter trap assay. […] Fluorescence imaging further confirmed that ML246 administration decreased the number of cells positive for HTT aggregates, which is also in an ATG7-dependent manner (FIG. S6B).
Accordingly, whether Rg2 affects the clearance of proteinaceous inclusions in vitro was next determined, using HeLa cell lines expressing tetracycline-repressible expanded polyglutamine (polyQ)-repeat protein HTT (huntingtin), HTT65Q and HTT103Q. Unlike the HTT protein with the normal number of glutamine repeats (HTT25Q), HTT65Q and HTT103Q formed insoluble polyQ aggregates larger than 0.2-μm diameter, which were detected by filter trap assays (FIG. 5A).
Filter trap assay. HeLa cells stably expressing CFP-HTT25Q, CFP-HTT65Q and CFP-HTT103Q were treated with 100 ng/ml tetracycline (IBI Scientific, IB02200) for 48 h, or 0.5 μM ML246 for 24 h with control or ATG7 siRNA (GE Dharmacon ON-TARGETplus control or ATG7 SMARTpool siRNA) for 48 h. Cells were then collected and lysed in lysis buffer containing 0.5% NP-40 for 30 min at 4° C. After centrifugation, the pellet was digested with 0.5 mg/ml DNasel (in 20 mM Tris-Cl, pH 8.0) for 1 h at 37° C., and dissolved into lysates containing insoluble aggregates by 2% SDS, 50 mM DTT and 20 mM EDTA. The lysates were then added onto 0.2 μm nitrocellulose membrane that was pre-equilibrated with 2% SDS/TBS for 30 min, and were filtered through the membrane by gentle vacuum using the Bio-Dot SF microfiltration apparatus (Bio-Rad). The signal was detected by immunostaining with the HRP-conjugated GFP antibody (Santa Cruz Biotechnology, sc9996, 1:1000).

[3] = mouse, in vivo
5XFAD mice = test: Contextual fear conditioning test of 5XFAD mice; assay type: in vivo, mouse; conditions: Rg2 for 4 months
Procedure: Fear conditioning training exposed mice to 2-s electrical foot shocks separated by 1-min interval through a grid floor at the bottom of the chamber. On the following day, the mice were returned to the same chamber and their movements were recorded with a video camera to test for contextual conditioning. Freezing (very low levels of movement) in the training environment indicate context-associated fear. WT mice without APP transgene were used as negative control in the above studies. N=8. *, P<0.05; **, P<0.01, t test.

[4] = liver, muscle, brain, heart, white and brown adipose tissue

Compound | pain-relieving effect of WIN on day 14 (WT mice) | LC3-II conversion (LC3 and p62/SQSTM1) | levels of p62 (SQSTM1) (LC3 and p62/SQSTM1) | levels of CB1R (CNR1) in the brain (CB1R) | coimmunoprecipitation of endogenous GASP1 by Beclin 2 [1] | accumulation of HTT65Q and HTT103Q aggregates ([2]; 0.5 μM ML246, 24 h) | reduction of HTT65Q and HTT103Q aggregates ([2]; ML246 with knockdown of ATG7) | food intake [3] | LC3-I to LC3-II conversion (LC3 and p62/SQSTM1; [4]) | levels of SQSTM1 (LC3 and p62/SQSTM1; [4]) | freezing responses (contextual fear memory) (5XFAD mice) | accumulation of HTT65Q and HTT103Q aggregates ([2]; Rg2, 24 h) | effect on HTT aggregates ([2]; Rg2 with knockdown of ATG7)
N=c1c2c(-c3ccccc3)c(-c3ccccc3)n(Cc3ccccc3)c2ncn1[C@H]1CC[C@H](O)CC1 [ML246] | potently rescued | not detect significant changes | decreased | higher levels | potently blocked | decreased | prevents this reduction | – | – | – | – | – | –
CC(C)=CCC[C@](C)(O)[C@H]1CC[C@]2(C)[C@@H]1[C@H](O)C[C@@H]1[C@@]3(C)CC[C@H](O)C(C)(C)[C@@H]3[C@@H](O[C@@H]3O[C@H](CO)[C@@H](O)[C@H](O)[C@H]3O[C@@H]3O[C@@H](C)[C@H](O)[C@@H](O)[C@H]3O)C[C@]12C [Rg2, ginsenoside Rg2] | potently rescued | not detect significant changes | decreased | higher levels | – | – | – | does not alter | increased | decreased levels | rescued the freezing responses | decreased accumulation | abolished
